Measured values as given in patent publication US11684616B2, “Azalactam compounds as HPK1 inhibitors” (PFIZER INC., priority 2020, dated 2023).
Read-outs that look alike come from different tables or passages of the source.

Columns and labels:
[1] = target: human full-length autophosphorylated recombinant HPK1 (Homo sapiens (Human), UniProt Q92918); test: HPK1 biochemical enzyme assay (chelation-enhanced fluorescence, CHEF); conditions: 0.5 nM HPK1, 45 μM ATP, Morrison fit
Method: HPK1 Biochemical Enzyme Assay
HPK1 enzyme inhibition was measured by using the fluorescence-based chelation-enhanced fluorescence (CHEF) method (1), and by using a proprietary fluorescent peptide substrate, in which a cysteine residue is alkylated with a sulfonamido-oxine-based derivative to afford an amino acid termed C-Sox (CSx). […] Initial reaction velocities were determined by following the peptide fluorescence (λex=360 nm, λem=500 nm) at 30° C. for 15 min in a Tecan M1000 plate reader (Tecan Group Ltd., Mannedorf, Zurich, Switzerland).
Production of Autophosphorylated Full-Length Recombinant HPK1
The DNA sequence encoding full-length human HPK1 (Genbank NM_001042600.2) was synthesized at GenScript and contained a limited number of silent base changes to eliminate certain restriction endonuclease enzyme recognition sites, and fused to a DNA sequence encoding a Tobacco Etch Virus (TEV)-cleavable N-terminal polyhistidine purification tag. A recombinant baculovirus was prepared by using the Bac-to-Bac method (InVitrogen) and was used to infect 9 L of Sf21 insect cells. All purification steps were carried out at 4° C. Cells containing recombinant HPK1 were lysed in 50 mM HEPES-NaOH, pH 7.5, 250 mM NaCl, 1 mM tris(2-carboxyethyl)phosphine (TCEP), 10 μM leupeptin (Sigma), 10 μM E-64 (Sigma), and one ‘EDTA-free’ protease inhibitor tablet (Roche) per 75 mL buffer, centrifuged at 15,000×g for 1 h and the supernatant passed over 5 mL of ProBond IMAC resin (InVitrogen). After washing, HPK1 was eluted with 12.5 mL of 50 mM HEPES-NaOH, pH 7.5, 400 mM NaCl, 250 mM imidazole-HCl pH 7.5, 1 mM TCEP, 2 μM leupeptin, and 2 μM E-64. The eluted HPK1 was dialyzed overnight against 0.8 L of 50 mM HEPES-NaOH, pH 7.5, 400 mM NaCl, 20 mM imidazole-HCl pH 7.5, 1 mM TCEP, 2 μM leupeptin, 2 μM E-64, 2 mM ATP-NaOH pH 7.3, 5 mM MgCl2 and 1 mg TEV (this step simultaneously allows for reduction of the imidazole concentration in preparation for the subsequent reverse IMAC chromatography step, removal of the polyhistidine purification tag by TEV protease, and autophosphorylation of HPK1 in the presence of MgATP). The de-tagged and autophosphorylated HPK1 was adjusted to 40 mM imidazole-HCl, pH 7.5, and passed through a 10 mL column of ProBond resin similarly equilibrated. […] The peak fractions containing HPK1 were pooled and concentrated to approximately 2.5 mL by using a centrifugal concentrator (Millipore). The concentrated HPK1 was adjusted to 20% (v/v) glycerol by the addition of 50% (v/v) glycerol, resulting in a final formulation of 25 mM HEPES-NaOH pH 7.5, 250 mM NaCl, 0.25 mM TCEP and 20% (v/v) glycerol. […] Aliquots of the enzyme were flash frozen in liquid nitrogen and stored at −80° C. The final product contains a glycine-serine extension at the N-terminus of the full-length protein, as a result of the cloning strategy.

[2] = test system: Phospho-SLP-76 (Ser376) in Jurkat cells; test: Phospho-SLP-76 (Ser376) HTRF assay in anti-CD3 stimulated Jurkat cells; format: cell-based; conditions: 30 min pre-treatment, anti-CD3 stimulation 15 min, read-out: pSLP76 IC50
Method: Cell Based Assays Phospho-SLP-76 (Ser376) Homogeneous Time Resolved Fluorescence (HTRF) Assay
Jurkat cells were seeded at 90,000 cells/well in 90 uL of RPMI1640 growth medium containing 10% FBS and incubated at 37° C. with 5% CO2 overnight. The following day, compounds were serially diluted from a 10 mM top dose for an 11-point 3-fold dilution curve in DMSO. Compounds were intermediately diluted 1:100 into growth media prior to diluting 1:10 on cells for final concentration 10 μM to 0.1 nM in 0.1% DMSO. After 30 min pre-treatment with compounds, the cells were stimulated using 200 μg/mL of F(ab)2 complexed anti-CD3 (clone UCTH1) for 15 min at 37° C. with 5% CO2. Stimulation was stopped with ice cold PBS and cells were harvested by centrifugation before lysis in Cisbio lysis buffer (Cisbio, Bedford, Mass.). Lysates were transferred to white, low-volume plates containing anti-phospho-SLP-76-Cryptate plus anti-phospho-SLP-76-d2 HTRF antibodies and incubated overnight at room temperature protected from light according to the manufacturer's protocol (Cisbio, Bedford, Mass.). HTRF was measured on a Perkin Elmer Envision and IC50 values were calculated by concentration-response curve fitting utilizing four-parameter nonlinear regression analyses.

human full-length autophosphorylated recombinant HPK1, sequence (Q92918 other isoform, or with tags, fused parts or gaps): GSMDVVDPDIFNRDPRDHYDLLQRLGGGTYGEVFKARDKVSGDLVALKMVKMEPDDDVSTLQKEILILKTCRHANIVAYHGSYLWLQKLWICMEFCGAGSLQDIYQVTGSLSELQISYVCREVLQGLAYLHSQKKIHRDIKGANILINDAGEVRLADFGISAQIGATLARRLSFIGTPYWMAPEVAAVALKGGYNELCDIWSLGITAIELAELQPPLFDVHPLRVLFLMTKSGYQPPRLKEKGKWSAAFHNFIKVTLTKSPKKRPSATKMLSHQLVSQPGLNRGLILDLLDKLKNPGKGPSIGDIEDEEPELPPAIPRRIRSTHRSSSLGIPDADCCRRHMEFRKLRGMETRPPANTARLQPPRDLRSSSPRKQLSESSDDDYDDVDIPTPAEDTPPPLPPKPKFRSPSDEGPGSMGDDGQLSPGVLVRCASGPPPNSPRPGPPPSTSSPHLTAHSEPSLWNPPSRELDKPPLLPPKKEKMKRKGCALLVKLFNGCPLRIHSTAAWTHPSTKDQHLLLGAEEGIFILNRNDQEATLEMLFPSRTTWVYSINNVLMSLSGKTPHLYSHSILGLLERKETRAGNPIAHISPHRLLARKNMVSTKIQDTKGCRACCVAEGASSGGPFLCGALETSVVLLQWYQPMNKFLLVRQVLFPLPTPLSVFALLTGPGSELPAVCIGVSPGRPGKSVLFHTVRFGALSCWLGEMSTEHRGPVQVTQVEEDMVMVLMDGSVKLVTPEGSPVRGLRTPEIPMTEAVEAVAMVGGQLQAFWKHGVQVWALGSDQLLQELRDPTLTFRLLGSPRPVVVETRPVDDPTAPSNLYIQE

“4-[(1ξ)-1- aminoethyl]-2- {6-[(5R)-5- (fluoromethyl)- 6,7-dihydro- 5H-pyrrolo[2,1- c][1,2,4]triazol- 3-yl]pyridin-2- yl}-6-[(2R)-2- methylpyrroli- din-1-yl]-2,3- dihydro-1H- pyrrolo[3,4- c]pyridin-1-one [Example 18]” was tested, and the Ki [1] was less than 0.05 nM and the IC50 [2] was 42 nM.
`CC[C@@H]1CCc2nnc(-c3cccc(N4Cc5c(cc(N6CCC[C@H]6C)nc5[C@H](N)CC)C4=O)n3)n21` (single isomer, unassigned) [Example 13] gave a Ki [1] of less than 0.07 nM and an IC50 ([2]; Homo sapiens, Jurkat) of 36 nM.
In the case of `CC[C@H]1CCc2nnc(-c3cccc(N4Cc5c(cc(N6CCC[C@H]6C)nc5[C@H](N)CC)C4=O)n3)n21` (single isomer, unassigned) [Example 14], the Ki [1] is reported as 0.93 nM and the IC50 ([2]; Homo sapiens, Jurkat) is reported as 340 nM.
For `CC[C@@H]1CCc2nnc(-c3cccc(N4Cc5c(cc(N6CCC[C@H]6C)nc5[C@@H](N)CC)C4=O)n3)n21` (single isomer, unassigned) [Example 16], the Ki [1] was 0.093 nM and the IC50 ([2]; Homo sapiens, Jurkat) was 487 nM.
In the case of `CC[C@@H](N)c1nc(N(C)C(C)C)cc2c1CN(c1cccc(-c3nnc4n3[C@@H](C)CC4)n1)C2=O` [Example 5], the IC50 ([2]; Homo sapiens, Jurkat) is reported as 31 nM.
For `COC[C@@H](N)c1nc(C2(C)CC2)cc2c1CN(c1cccc(-c3nnc4n3[C@@H](C)CC4)n1)C2=O` [Example 6a, 4-[(1)-1-amino-2-methoxyethyl]-6-(1-methylcyclopropyl)-2-{6-[(5S)-5-methyl-6,7-dihydro-5H-pyrrolo[2,1-c][1,2,4]triazol-3-yl]pyridin-2-yl}-2,3-dihydro-1H-pyrrolo[3,4-c]pyridin-1-one], the IC50 [2] was 69 nM.
For `COC[C@@H](N)c1nc(C2(C)CC2)cc2c1CN(c1cccc(-c3nnc4n3[C@@H](C)CC4)n1)C2=O` [Example 6b, 4-[(1)-1-amino-2-methoxyethyl]-6-(1-methylcyclopropyl)-2-{6-[(5S)-5-methyl-6,7-dihydro-5H-pyrrolo[2,1-c][1,2,4]triazol-3-yl]pyridin-2-yl}-2,3-dihydro-1H-pyrrolo[3,4-c]pyridin-1-one], the IC50 [2] was 641 nM.
`CC(C)N(C)c1cc2c(c([C@@H](C)N)n1)CN(c1cccc(-c3nnc4n3[C@@H](C)CC4)n1)C2=O` [Example 21, 4-[(1R)-1-aminoethyl]-2-{6-[(5S)-5-methyl-6,7-dihydro-5H-pyrrolo[2,1-c][1,2,4]triazol-3-yl]pyridin-2-yl}-6-[methyl(propan-2-yl)amino]-2,3-dihydro-1H-pyrrolo[3,4-c]pyridin-1-one] gave an IC50 ([2]; Homo sapiens, Jurkat) of 46 nM.
`CCCn1cnnc1-c1cccc(N2Cc3c(cc(N(C)C)nc3[C@H](C)N)C2=O)n1` [Example 137, 4-[(1S)-1-aminoethyl]-6-(dimethyl-amino)-2-[6-(4-propyl-4H-1,2,4-triazol-3-yl)pyridin-2-yl]-2,3-dihydro-1H-pyrrolo[3,4-c]pyridin-1-one] showed an IC50 ([2]; Homo sapiens, Jurkat) of 189 nM.
Molecule `CCCn1cnnc1-c1cccc(N2Cc3c(cc(N(C)C)nc3[C@@H](C)N)C2=O)n1` [Example 138, 4-[(1R)-1-aminoethyl]-6-(dimethyl-amino)-2-[6-(4-propyl-4H-1,2,4-triazol-3-yl)pyridin-2-yl]-2,3-dihydro-1H-pyrrolo[3,4-c]pyridin-1-one] has an IC50 ([2]; Homo sapiens, Jurkat) of 332 nM.
Work on `CC[C@@H]1CCc2nnc(-c3cccc(N4Cc5c(cc(N(C)C)nc5CNC)C4=O)n3)n21` [Example 207, 6-(dimethyl-amino)-2-{6-[(5R)-5-ethyl-6,7-dihydro-5H-pyrrolo[2,1-c] [1,2,4]triazol-3-yl]pyridin-2-yl}-4-[(methyl-amino)methyl]-2,3-dihydro-1H-pyrrolo[3,4-c] pyridin-1-one] yielded a Ki [1] of 2.68 nM.
In the case of `CNCc1nc(N(C)C)cc2c1CN(c1cccc(-c3nnc4n3[C@H](C)CC4)n1)C2=O` [Example 209, 6-(dimethyl-amino)-4-[(methylamino)methyl]-2-{6-[(5R)-5-methyl-6,7-dihydro-5H-pyrrolo[2,1-c] [1,2,4]triazol-3-yl]pyridin-2-yl}-2,3-dihydro-1H-pyrrolo[3,4-c] pyridin-1-one], the Ki [1] is reported as 2.11 nM.
